Legend:
[1] = Agonist activity at human GPR120 long isoform transfected in HEK293 cells assessed as calcium flux by FLIPR assay; format: cell-based
[2] = system: Mus musculus; test: Antidiabetic activity in DIO mouse assessed as glucose level at 10 mg/kg measured from -30 to 90 mins by oral glucose tolerance test; format: functional
[3] = Agonist activity at human GPR120 long isoform transfected in CHO-K1 cells by beta-arrestin recruitment assay; format: cell-based
[4] = system: Mus musculus; test: Antidiabetic activity in C57bl6 mouse assessed as glucose level at 3 mg/kg by oral glucose tolerance test; format: functional
[5] = system: Mus musculus; test: Antidiabetic activity in C57bl6 mouse assessed as glucose level at 3 mg/kg by intraperitoneal glucose tolerance test; format: functional
[6] = Agonist activity at human GPR120 short isoform transfected in CHO-K1 cells by beta-arrestin recruitment assay; format: cell-based
[7] = Agonist activity at human GPR120 short isoform transfected in HEK293 cells assessed as calcium flux by FLIPR assay; format: cell-based
[8] = system: Mus musculus; test: Antidiabetic activity in C57bl6 mouse assessed as glucose level at 30 mg/kg by intraperitoneal glucose tolerance test; format: functional
[9] = system: Mus musculus; test: Antidiabetic activity in C57bl6 mouse assessed as glucose level at 10 mg/kg by intraperitoneal glucose tolerance test; format: functional

| SMILES | EC50 [1] [nM] | EC50 [3] [nM] | EC50 [6] [nM] | EC50 [7] [nM] | Activity [2] [%] | Activity [4] [%] | Activity [5] [%] | Activity [8] [%] | Activity [9] [%] |
| --- | --- | --- | --- | --- | --- | --- | --- | --- | --- |
| Cc1c(CCC(=O)O)ccc(OCc2c(-c3ccc(Cl)cc3)nsc2C(F)(F)F)c1C | 155 | 141 | 100 | – | – | – | -34 | -53 | -61 |
| Cc1ccccc1-c1snc(Cl)c1COc1c(F)cc(CCC(=O)O)cc1F | 344 | 322 | 990 | – | – | – | – | – | – |
| Cc1c(CCC(=O)O)ccc(OCc2sc(F)cc2-c2ccc(Cl)cc2)c1C | 49 | – | 83 | – | – | – | – | – | – |
| CCc1ccc(-c2cc(F)sc2COc2ccc(CCC(=O)O)c(C)c2C)cc1 | 24 | 218 | 205 | – | – | – | – | – | – |

Second part, led by results:

| EC50 [1] [nM] | EC50 [3] [nM] | EC50 [6] [nM] | EC50 [7] [nM] | SMILES | Activity [2] [%] | Activity [4] [%] | Activity [5] [%] | Activity [8] [%] | Activity [9] [%] |
| --- | --- | --- | --- | --- | --- | --- | --- | --- | --- |
| 37 | 278 | 139 | – | O=C(O)CCc1cc(F)c(OCc2c(C3CCCC3)nsc2C(F)(F)F)c(F)c1 | -0.52 | -37 | -14 | – | – |
| – | – | 80 | 139 | OCCCc1cc(F)c(OCc2c(-c3ccc(Cl)cc3F)nsc2C(F)(F)F)c(F)c1 | – | – | – | – | – |
